Experimental data taken from patent US20170184612A1, “USE OF LEUKOCYTES AND NOVEL BIOMARKERS IN THE DIAGNOSIS, CONFIRMATION, AND TREATMENT OF A NEUROLOGICAL DISORDER” (The Trustees of Columbia University in the City of New York, priority 2014, published 2017).

How the values were obtained:
[1] = test system: peripheral blood mononuclear cells (PBMC), T cells; test: ELISpot assay, gamma-interferon release (SFC) after stimulation with a-synuclein epitope pools; type: cell-based, human; settings: for Pool +: IFNg, Pool Stimulated, number of donors with a positive response, Donors tested 1
Method in brief: (§1)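 Samples came from 44 PD patients and 24 matched controls, tested blindly. Their PBMC were stimulated for 22 hours at 37 C with α-synuclein peptide pools, and pools that responded were resolved into individual epitopes.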

[2] = test system: peripheral blood mononuclear cells (PBMC), T cells; test: ELISpot assay, IL-5 release (SFC) after stimulation with a-synuclein epitope pools; type: cell-based, human
Method in brief: as §1

[3] = pool 'Phospho' (phosphorylated peptides)
[4] = Patients Summary, PD patients, of donors tested (peptide)
[5] = Patients Summary, PD patients, single peptide
[6] = Patients Summary, Phospho pool peptides
[7] = Patients Summary, Phospho pool peptides, 10 donors tested
[8] = peptides of pool 'Poshpho', 8 donors tested
[9] = peptides of pool 'Poshpho', 8 donors tested, number of donors positive
[10] = number of donors positive to the single peptide, second 'Pool Stimulated' section (from r296), 12 donors tested
[11] = peptide + / donors tested (peptide), second 'Pool Stimulated' section (from r296), 12 donors tested
[12] = single peptide, second 'Pool Stimulated' section (from r296), 12 donors tested

Row | Substance | Pool + [1] | IFNg Peptide + (donors positive to the peptide) [1, 4] | IFNg Response Frequency [1, 5] [%] | IFNg Total SFC [1, 5] [SFC] | IL-g Peptide + (donors positive to the peptide) [2, 4] | IL-g Response Frequency [2, 5] [%] | IL-g Total SFC [2, 5] [SFC] | IFNg Peptide + [1, 10] | IFNg Response Frequency [1, 11] [%] | IL-g Peptide + [2, 10] | IL-g Response Frequency [2, 11] [%] | IL-g Total SFC [2, 12] [SFC] | IFNg Total SFC [1, 12] [SFC] | other results
1 | 3521.0038 (EMPSEEGYQD; listed as Homo sapiens) | 0 | 0 | 0 | 0 | 0 | 0 | 0 | – | – | – | – | – | – | Pool + [1, 3]: 1; IFNg Avg SFC [1, 6]: 502 SFC; IFNg Response Frequency [1, 6]: 30%; IFNg Total SFC [1, 6]: 1507 SFC; IFNg Peptide + (donors positive to the peptide) [1, 7]: 3; IFNg Avg SFC [1, 8]: 40 SFC; IFNg Response Frequency [1, 8]: 13%; IFNg Total SFC [1, 8]: 40 SFC; IFNg Peptide + [1, 9]: 1; IL-g Avg SFC [2, 6]: 620 SFC; IL-g Response Frequency [2, 6]: 10%; IL-g Total SFC [2, 6]: 620 SFC; IL-g Peptide + (donors positive to the peptide) [2, 7]: 1; IL-g Avg SFC [2, 8]: 33 SFC; IL-g Response Frequency [2, 8]: 13%; IL-g Total SFC [2, 8]: 33 SFC; IL-g Peptide + [2, 9]: 1
2 | 3521.0045 (KTKKGVVHGV; listed as Homo sapiens) | – | 1 | 17 | 133 | 0 | 0 | 0 | – | – | – | – | – | – | IFNg Avg SFC [1, 5]: 133 SFC
3 | 3521.0027 (AYEMPSEEGY; listed as Homo sapiens) | 0 | 0 | 0 | 0 | 0 | 0 | 0 | 0 | 0 | 0 | 0 | 0 | – | Pool + [1, 3]: 1; IFNg Avg SFC [1, 6]: 700 SFC; IFNg Response Frequency [1, 6]: 20%; IFNg Total SFC [1, 6]: 1400 SFC; IFNg Peptide + (donors positive to the peptide) [1, 7]: 2; IFNg Avg SFC [1, 8]: 53 SFC; IFNg Response Frequency [1, 8]: 13%; IFNg Total SFC [1, 8]: 53 SFC; IFNg Peptide + [1, 9]: 1; IL-g Avg SFC [2, 6]: 530 SFC; IL-g Response Frequency [2, 6]: 20%; IL-g Total SFC [2, 6]: 1060 SFC; IL-g Peptide + (donors positive to the peptide) [2, 7]: 2; IL-g Avg SFC [2, 8]: 87 SFC; IL-g Response Frequency [2, 8]: 13%; IL-g Total SFC [2, 8]: 87 SFC; IL-g Peptide + [2, 9]: 1
4 | 3521.0047 (IAAATGFVKK; listed as Homo sapiens) | 0 | 0 | 0 | 0 | 0 | 0 | 0 | 0 | 0 | 0 | 0 | 0 | 0 | –
5 | 3521.0056 (YEMPSEEGYQ; listed as Homo sapiens) | 0 | 0 | 0 | 0 | 0 | 0 | 0 | 0 | 0 | 1 | 50 | 89 | – | Pool + [1, 3]: 0; IFNg Response Frequency [1, 6]: 0%; IFNg Total SFC [1, 6]: 0 SFC; IFNg Peptide + (donors positive to the peptide) [1, 7]: 0; IFNg Avg SFC [1, 8]: 100 SFC; IFNg Response Frequency [1, 8]: 13%; IFNg Total SFC [1, 8]: 100 SFC; IFNg Peptide + [1, 9]: 1; IL-g Response Frequency [2, 6]: 0%; IL-g Total SFC [2, 6]: 0 SFC; IL-g Peptide + (donors positive to the peptide) [2, 7]: 0; IL-g Avg SFC [2, 8]: 167 SFC; IL-g Response Frequency [2, 8]: 13%; IL-g Total SFC [2, 8]: 167 SFC; IL-g Peptide + [2, 9]: 1; IL-g Avg SFC [2, 12]: 89 SFC
6 | 3521.0086 (ATVAEKTKEQVTNVG; listed as Homo sapiens) | 1 | 0 | 0 | 0 | 0 | 0 | 0 | 0 | 0 | 0 | 0 | 0 | 0 | –
7 | 3521.002 (AGKTKEGVL; listed as Homo sapiens) | 0 | 1 | 13 | 98 | 1 | 13 | 106 | 0 | 0 | 0 | 0 | 0 | 0 | IFNg Avg SFC [1, 5]: 98 SFC; IL-g Avg SFC [2, 5]: 106 SFC
8 | 3521.0067 (KTKEGVVHG; listed as Homo sapiens) | 0 | 0 | 0 | 0 | 0 | 0 | 0 | – | – | – | – | – | – | –
9 | 3521.0037 (LYVGSKTKEG; listed as Homo sapiens) | 0 | 1 | 17 | 248 | 1 | 17 | 754 | – | – | – | – | – | – | IFNg Avg SFC [1, 5]: 248 SFC; IL-g Avg SFC [2, 5]: 754 SFC
10 | 3521.0024 (DPDNEAYEM; listed as Homo sapiens) | 0 | 0 | 0 | 0 | 0 | 0 | 0 | – | 50 | 1 | 50 | 300 | 93.3 | IL-g Avg SFC [2, 12]: 300 SFC
11 | 3521.0077 (KTKEGVLYVGSKTKK; listed as Homo sapiens) | 1 | 5 | 63 | 3505 | 6 | 75 | 3565 | 2 | 100 | 2 | 100 | 1814 | 3020 | IFNg Avg SFC [1, 5]: 701 SFC; IFNg Avg SFC [1, 12]: 1510 SFC; IL-g Avg SFC [2, 5]: 595 SFC; IL-g Avg SFC [2, 12]: 3907 SFC
12 | 3521.0059 (AEAAGKTKEG; listed as Homo sapiens) | 1 | 0 | 0 | 0 | 1 | 13 | 71 | 1 | 50 | 0 | 0 | 0 | 120 | IFNg Avg SFC [1, 12]: 120 SFC; IL-g Avg SFC [2, 5]: 71 SFC
13 | 3521.0084 (YVGSKTKEGVVHGVA; listed as Homo sapiens) | 0 | 0 | 0 | 0 | 0 | 0 | 0 | – | – | – | – | – | – | –
14 | 3521.0019 (APGKTKEGV; listed as Homo sapiens) | 0 | 0 | 0 | 0 | 0 | 0 | 0 | 0 | 0 | 0 | 0 | 0 | 0 | –
15 | 3521.0022 (GSIAAATGF; listed as Homo sapiens) | 0 | 0 | 0 | 0 | 0 | 0 | 0 | 0 | 0 | 0 | 0 | 0 | 0 | –
16 | 3521.0048 (EQVTNVGGAV; listed as Homo sapiens) | 0 | 0 | 0 | 0 | 0 | 0 | 0 | 0 | 0 | 0 | 0 | 0 | 0 | –
